Laboratory results published in PMC9377007, “An Unexpected Deuterium-Induced Metabolic Switch in Doxophylline” (ACS Medicinal Chemistry Letters, 2022).

Experiment: Levels of doxophylline metabolites in mice plasma
Assay type: in vivo
Text: From an analysis of the levels of metabolites in mice plasma, it was seen that deuteration of the dioxolane ring (d4-doxophylline) triggered considerable alterations in the relative abundances of the metabolites generated. […] This is mainly related to a marked increase of the metabolic route 2, in which the electronic influence of the two oxygen atoms adjacent to the target sp^3 carbon atom greatly facilitates oxene attack and homolytic cleavage of the C–H bond.[29]
With regard to d7-doxophylline, only a semiquantitative determination was feasible because its metabolites (with the exception of theophylline) retain deuterium atoms (see the Supporting Information for structures). Indeed, the presence of deuterium lowers the signals in the electrospray ionization source, and the corresponding deuterated standards of the metabolites would have been necessary to perform an accurate quantification. Moreover, no reference standard was available for the quantification of the metabolites dm-doxophylline 9 and dh-doxophylline 10, and their relative abundances were expressed as peak areas of the corresponding accurate-mass ions.
• Comparative pharmacokinetic study
A total of 96 CD1 male mice, approximately 6 weeks old and with a body weight of approximately 30 g, were purchased from Envigo RMS srl, (San Pietro al Natisone, UD, Italy). […]
Protocol for drug administration and blood sampling.
Blood samples were collected under light isoflurane anaesthesia from the sublingual vein at the following time points (n=3): pre-dose and 5, 15, 30 minutes, 1, 2, 4, 8 and 24 hours after i.v. dosing (20 mg/Kg, dose volume 5 mL/Kg) and pre-dose and 15, 30 minutes, 1, 2, 4, 8 and 24 hours after oral gavage dosing (80 mg/Kg, dose volume 5 mL/Kg). Each animal was sampled on each day at a maximum of two alternating time points.
Samples were transferred into tubes containing K3EDTA as anticoagulant, centrifuged, and stored at -80 °C. […] Sample preparation for HPLC-MS analysis.
A volume of 50 µL of caffeine solution (1 mg/L in water-methanol 1:1) were added to plasma sample aliquots (50 µL); after the addition of the precipitant solution (100 µL of 10% ice-cold trichloroacetic acid in water), samples were centrifuged at 13,000 rpm for ten minutes and the supernatant injected onto the HPLC system (see supporting information for chromatographic conditions). If the levels of analytes were over range, plasma samples were preventively diluted with blank plasma.
Quantification of doxophylline and its deuterated analogues d4 and d7 as well as their main metabolites, 7-theophylline acetic acid (T-COOH), 7-hydroxyethyl theophylline (Eto) and theophylline, was performed by using the calibration curves obtained with the corresponding working standards of the analytes and using caffeine as internal standard.
The pharmacokinetic parameters for doxophylline and its deuterated analogues were calculated by plotting the plasma concentration curves versus time obtained from the average values of three animals, using PK Solver

Row | levels of all metabolites except dm-doxophylline 9 versus doxophylline (semiquantitative determination) | level of metabolite etophylline 7 versus doxophylline | plasmatic level of metabolite theophylline 1 versus doxophylline | level of dehydrogenated metabolite dh-doxophylline 10 versus doxophylline (peak area) | plasmatic level of metabolite dm-doxophylline 9 versus doxophylline (peak area) | SMILES
1 | diminished levels | – | – | – | – | [2H]C1([2H])OC([2H])(C([2H])([2H])n2cnc3c2c(=O)n(C)c(=O)n3C)OC1([2H])[2H] [d7-doxophylline]
2 | – | decreased level | significant increase | decrease | significant increase | [2H]C1([2H])OC(Cn2cnc3c2c(=O)n(C)c(=O)n3C)OC1([2H])[2H] [d4-doxophylline]
